Results from ChEMBL document CHEMBL4002623, “Synthesis and in vitro activity of dicationic indolyl diphenyl ethers as novel potent antibiotic agents against drug-resistant bacteria” (Bioorg Med Chem Lett, 2017).
≈ marks a conversion by molar mass, not a printed value.

Columns and labels:
[1] = system: Staphylococcus aureus; test: Antibacterial activity against methicillin-resistant Staphylococcus aureus 09-13 by agar dilution method; type: functional
[2] = system: Staphylococcus aureus; test: Antibacterial activity against methicillin-sensitive Staphylococcus aureus 15 by agar dilution method; type: functional
[3] = system: Staphylococcus epidermidis; test: Antibacterial activity against methicillin-sensitive Staphylococcus epidermidis 09-9 by agar dilution method; type: functional
[4] = system: Pseudomonas aeruginosa; test: Antibacterial activity against Pseudomonas aeruginosa ATCC 27853 by agar dilution method; type: functional
[5] = system: Escherichia coli; test: Antibacterial activity against extended-spectrum beta-lactamase-negative Escherichia coli 09-20 by agar dilution method; type: functional
[6] = system: Enterococcus faecalis; test: Antibacterial activity against vancomycin-sensitive Enterococcus faecalis 09-8 by agar dilution method; type: functional
[7] = Cytotoxicity against HEK293T cells after 48 hrs by MTS assay; type: cell-based, HEK-293T; details: human
[8] = system: Klebsiella pneumoniae; test: Antibacterial activity against extended-spectrum beta-lactamase-negative Klebsiella pneumoniae 7 by agar dilution method; type: functional
[9] = system: Pseudomonas aeruginosa; test: Antibacterial activity against Pseudomonas aeruginosa 09-14 by agar dilution method; type: functional
[10] = system: Pseudomonas aeruginosa; test: Antibacterial activity against Pseudomonas aeruginosa PAO1 by agar dilution method; type: functional
[11] = system: Staphylococcus epidermidis; test: Antibacterial activity against methicillin-sensitive Staphylococcus epidermidis ATCC 12228 by agar dilution method; type: functional
[12] = system: Providencia rettgeri; test: Antibacterial activity against Providencia rettgeri ATCC 31052 by agar dilution method; type: functional
[13] = system: Enterococcus faecium; test: Antibacterial activity against vancomycin-resistant Enterococcus faecium 05-8 by agar dilution method; type: functional
[14] = system: Salmonella typhi; test: Antibacterial activity against Salmonella typhi H901 by agar dilution method; type: functional, Salmonella enterica subsp. enterica serovar Typhi; details: Salmonella enterica
[15] = system: Staphylococcus aureus; test: Antibacterial activity against methicillin-sensitive Staphylococcus aureus 09-6 by agar dilution method; type: functional
[16] = system: Enterococcus faecalis; test: Antibacterial activity against vancomycin-resistant Enterococcus faecalis 09-9 by agar dilution method; type: functional
[17] = system: Enterococcus faecalis; test: Antibacterial activity against vancomycin-resistant Enterococcus faecalis ATCC 51299 by agar dilution method; type: functional
[18] = system: Klebsiella aerogenes; test: Antibacterial activity against Enterobacter aerogenes 45102 by agar dilution method; type: functional
[19] = system: Staphylococcus aureus; test: Antibacterial activity against methicillin-sensitive Staphylococcus aureus ATCC 29213 by agar dilution method; type: functional
[20] = system: Escherichia coli; test: Antibacterial activity against extended-spectrum beta-lactamase-negative Escherichia coli 1515 by agar dilution method; type: functional
[21] = system: Staphylococcus aureus; test: Antibacterial activity against methicillin-resistant Staphylococcus aureus ATCC 33591 by agar dilution method; type: functional
[22] = system: Proteus vulgaris; test: Antibacterial activity against Proteus vulgaris ATCC 29905 by agar dilution method; type: functional
[23] = system: Escherichia coli; test: Antibacterial activity against extended-spectrum beta-lactamase-negative Escherichia coli ATCC 25922 by agar dilution method; type: functional
[24] = system: Citrobacter freundii; test: Antibacterial activity against Citrobacter freundii ATCC 43864 by agar dilution method; type: functional
[25] = system: Enterococcus faecium; test: Antibacterial activity against vancomycin-resistant Enterococcus faecium ATCC 700221 by agar dilution method; type: functional
[26] = system: Proteus mirabilis; test: Antibacterial activity against Proteus mirabilis 09-1 by agar dilution method; type: functional
[27] = system: Escherichia coli; test: Antibacterial activity against extended-spectrum beta-lactamase-positive Escherichia coli 09-1 by agar dilution method; type: functional
[28] = system: Enterobacter cloacae; test: Antibacterial activity against Enterobacter cloacae 45301 by agar dilution method; type: functional
[29] = system: Klebsiella pneumoniae; test: Antibacterial activity against extended-spectrum beta-lactamase-positive Klebsiella pneumoniae 09-25 by agar dilution method; type: functional
[30] = system: Klebsiella pneumoniae; test: Antibacterial activity against extended-spectrum beta-lactamase-positive Klebsiella pneumoniae ATCC 700603 by agar dilution method; type: functional
[31] = system: Klebsiella pneumoniae; test: Antibacterial activity against Klebsiella pneumoniae ATCC BAA-2146 expressing NDM-1 by agar dilution method; type: functional
[32] = system: Enterococcus faecium; test: Antibacterial activity against vancomycin-sensitive Enterococcus faecium 09-10 by agar dilution method; type: functional
[33] = system: Klebsiella pneumoniae; test: Potency index, ratio of levofloxacin MIC to test compound MIC for Klebsiella pneumoniae ATCC BAA-2146 expressing NDM-1; type: functional
[34] = system: Staphylococcus epidermidis; test: Antibacterial activity against methicillin-resistant Staphylococcus epidermidis 09-3 by agar dilution method; type: functional
[35] = system: Enterococcus faecalis; test: Antibacterial activity against vancomycin-sensitive Enterococcus faecalis ATCC 29212 by agar dilution method; type: functional
[36] = system: Acinetobacter calcoaceticus; test: Antibacterial activity against Acinetobacter calcoaceticus ATCC 19606 by agar dilution method; type: functional
[37] = system: Morganella morganii; test: Antibacterial activity against Morganella morganii ATCC 25830 by agar dilution method; type: functional
[38] = system: Serratia marcescens; test: Antibacterial activity against Serratia marcescens 41002 by agar dilution method; type: functional
[39] = system: Klebsiella pneumoniae; test: Antibacterial activity against extended-spectrum beta-lactamase-negative Klebsiella pneumoniae 09-8 by agar dilution method; type: functional

SMILES: CN(C)C(=N)c1ccc2cc(-c3ccc(Oc4ccc(-c5cc6ccc(C(=N)N(C)C)cc6[nH]5)cc4)cc3)[nH]c2c1
- MIC [1]: 0.25 µg/mL (≈ 0.462 µM)
- MIC [2]: 0.25 µg/mL (≈ 0.462 µM)
- MIC [3]: 0.25 µg/mL (≈ 0.462 µM)
- MIC [4]: 128 µg/mL (≈ 237 µM)
- MIC [5]: 8 µg/mL (≈ 14.8 µM)
- MIC [6]: 2 µg/mL (≈ 3.7 µM)
- CC50 at 48 h [7]: 21.6 µg/mL (≈ 40 µM)
- MIC [8]: 8 µg/mL (≈ 14.8 µM)
- MIC [9]: > 128 µg/mL
- MIC [10]: > 128 µg/mL
- MIC [11]: 0.125 µg/mL (≈ 0.231 µM)
- MIC [12]: 8 µg/mL (≈ 14.8 µM)
- MIC [13]: 2 µg/mL (≈ 3.7 µM)
- MIC [14]: 16 µg/mL (≈ 29.6 µM)
- MIC [15]: 0.25 µg/mL (≈ 0.462 µM)
- MIC [16]: 2 µg/mL (≈ 3.7 µM)
- MIC [17]: 1 µg/mL (≈ 1.85 µM)
- MIC [18]: 8 µg/mL (≈ 14.8 µM)
- MIC [19]: 0.25 µg/mL (≈ 0.462 µM)
- MIC [20]: 4 µg/mL (≈ 7.4 µM)
- MIC [21]: 0.25 µg/mL (≈ 0.462 µM)
- MIC [22]: 8 µg/mL (≈ 14.8 µM)
- MIC [23]: 4 µg/mL (≈ 7.4 µM)
- MIC [24]: 8 µg/mL (≈ 14.8 µM)
- MIC [25]: 2 µg/mL (≈ 3.7 µM)
- MIC [26]: 32 µg/mL (≈ 59.2 µM)
- MIC [27]: 8 µg/mL (≈ 14.8 µM)
- MIC [28]: 64 µg/mL (≈ 118 µM)
- MIC [29]: 8 µg/mL (≈ 14.8 µM)
- MIC [30]: 8 µg/mL (≈ 14.8 µM)
- MIC [31]: 8 µg/mL (≈ 14.8 µM)
- MIC [32]: 2 µg/mL (≈ 3.7 µM)
- Ratio [33]: >16
- MIC [34]: 0.25 µg/mL (≈ 0.462 µM)
- MIC [35]: 0.5 µg/mL (≈ 0.925 µM)
- MIC [36]: > 128 µg/mL
- MIC [37]: > 128 µg/mL
- MIC [38]: 32 µg/mL (≈ 59.2 µM)
- MIC [39]: 8 µg/mL (≈ 14.8 µM)
